Test results published in patent EP4772514A1, “MACROCYCLIC COMPOUNDS, PREPARATION METHOD THEREFOR, AND USE THEREOF” (Genfleet Therapeutics (Shanghai) Inc., priority 2023, dated 2025).
Like-named read-outs stand apart in the source and are kept apart here.

Key:
NCI-H441 cells = assay: 3D cell proliferation assay (CellTiter Glo-3D) in NCI-H441 cells; format: cell-based; conditions: NCI-H441, human lung cancer cell strain, KRAS G12V mutation, 3D culture, 2% FBS, 5 days, read-out: H441 AP IC50
Source text: MIA PaCa-2 cells were purchased from ATCC, Cat. No. CRL-1420; AsPC-1 cells were purchased from ATCC, Cat. No. CRL-1682; NCI-H441 cells were purchased from ATCC, Cat. No. HTB-174; NCI-H1975 cells were purchased from ATCC, Cat. No. CRL-5908; DMEM medium was purchased from Gibco, Cat. No. 11995-065; RPMI-1640 medium was purchased from Gibco, Cat. No. 11875-093; FBS was purchased from Gibco, Cat. No. 10099-141C; penicillin/streptomycin double-antibiotic solution (PS) was purchased from Gibco, Cat. No. 15140-122; Horse serum was purchased from Gibco, Cat. No. 16050130; trypsin (containing EDTA) was purchased from Gibco, Cat. No. 25200-072; DMSO was purchased from VWRAMRESCO, Cat. No. 0231-500ML; 384-well cell culture plates were purchased from Corning, Cat. No. 3830; white-bottomed, opaque 384-well assay plates were purchased from Corning, Cat. No. 3570; CellTiter Glo-3D kit was purchased from Promega, Cat. No. G9683; cell counter was purchased from CHEMOMETEC, model: NC-200; microplate reader was purchased from PerkinElmer, model: EnVision.
MIA PaCa-2, a human pancreatic cancer cell strain endogenously containing a KRAS^G12Cmutation, was cultured in a complete medium containing DMEM + 10% FBS + 2.5% Horse serum + 1% PS. AsPC-1, a human pancreatic cancer cell strain endogenously containing a KRAS^G12D mutation, was cultured in a complete medium containing RPMI-1640 + 10% FBS + 1% PS. NCI-H441 cells, a human lung cancer cell strain endogenously containing a KRAS^G12V mutation, were cultured in a complete medium containing RPMI-1640 + 10% FBS + 1% PS. NCI-H1975, a KRAS wild-type human lung cancer cell strain whose cell proliferation […], was cultured in a complete medium containing RPMI-1640 + 10% FBS + 1% PS.
The cells were digested with trypsin (containing EDTA), collected in their respective low-serum complete media containing 2% FBS (for MIA Paca-2 cell culture: DMEM + 2% FBS + 0.5% Horse serum + 1% PS), and counted. After the cell density was adjusted as required, MIA PaCa-2 cells (200 cells/well), AsPC-1 cells (800 cells/well), NCI-H441 cells (800 cells/well), or NCI-H1975 cells (400 cells/well) were seeded into a 384-well cell culture plate, with the volume of the medium in each well being 45 µL. The cell culture plate was incubated in an incubator at 37 °C with 5% CO2 overnight. A series of 3.16-fold gradient dilutions of a 1000× compound stock solution were prepared with DMSO, and then diluted 100-fold with the complete medium containing 2% FBS described above to give 10× compound stock solutions. On the day after cell seeding, 5 µL of the 10× compound stock solution was added to each cell culture well. As a result, the final concentration of the compound in the cell culture well became 1×, and the DMSO content in the well was 0.1%. In addition to the compound-treated wells described above, cell-containing DMSO control wells (with 5 µL of the complete medium containing 1% DMSO added to each well) and cell-free medium control wells (containing 50 µL of the complete medium with 2% FBS) were also set. The culture plate was incubated in an incubator at 37 °C with 5% CO2 for another 5 days, and then 30 µL of CellTiter-Glo working solution was added to each well. The mixture was well mixed, incubated for 30 min, left to stand at room temperature for 30 min, and then transferred to a white-bottomed, opaque 384-well assay plate at 40 µL/well. The chemiluminescence values (RLU) were measured using a microplate reader, and the cell proliferation inhibition rate for each well was calculated: IR(%) = (RLUDMSO - RLUcompound)/(RLUDMSO - RLUblank) × 100%, where RLUDMSO is the average RLU signal value from the DMSO control well samples, RLUblank is the average RLU signal value from the medium control well samples, and RLUcompound is the RLU signal value from the compound-treated well samples. […]

p-ERK = assay: Cell p-ERK assay (HTRF, Advance ERK phospho-T202/Y204 kit) in NCI-H441 cells; format: cell-based; conditions: NCI-H441, human non-small cell lung cancer cell strain, KRAS G12V mutation, 3 h compound incubation
Method: AsPC-1 cells were purchased from ATCC, Cat. No. CRL-1682; NCI-H441 cells were purchased from ATCC, Cat. No. HTB-174; RPMI-1640 medium was purchased from Gibco, Cat. No. 11875-093; FBS was purchased from Gibco, Cat. No. 10099-141C; penicillin/streptomycin double-antibiotic solution (PS) was purchased from Gibco, Cat. No. 15140-122; trypsin (containing EDTA) was purchased from Gibco, Cat. No. 25200-072; DMSO was purchased from VWRAMRESCO, Cat. No. 0231-500ML; 96-well cell culture plates were purchased from Corning, Cat. No. 3599; white-bottomed, opaque 96-well plates were purchased from Cisbio, Cat. No. 66PL96025; Advance ERK phospho-T202/Y204 kit was purchased from Cisbio, Cat. No. 64AERPEH; cell counter was purchased from CHEMOMETEC, model: NC-200; microplate reader was purchased from PerkinElmer, model: EnVision.
AsPC-1, a human pancreatic cancer cell strain endogenously containing a KRAS^G12D mutation, was cultured in a complete medium containing RPMI-1640 + 10% FBS + 1% PS. NCI-H441, a human non-small cell lung cancer cell strain endogenously containing a KRAS^G12V mutation, was cultured in a complete medium containing RPMI-1640 + 10% FBS + 1% PS.
The cells were digested with trypsin (containing EDTA), collected in their corresponding complete media, and counted. The density of the cell suspensions was adjusted with their corresponding complete media, and AsPC-1 cells (10000 cells/well) or NCI-H441 cells (20000 cells/well) were seeded into a 96-well cell culture plate, with the volume of the medium in each well being 80 µL. The cell culture plate was incubated in an incubator at 37 °C with 5% CO2 overnight. A series of 3.16-fold gradient dilutions of a 1000× compound stock solution were prepared with DMSO, and then diluted 200-fold with the complete medium described above to give 5× compound stock solutions. On the day after cell seeding, 20 µL of the 5× compound stock solution was added to each cell culture well. As a result, the final concentration of the compound in the cell culture well became 1×, and the DMSO content in the well was 0.1%. In addition to the compound-treated wells described above, cell-containing DMSO control wells were also set. A complete medium containing 0.5% DMSO was added at 20 µL/well. After the mixture was well mixed, the culture plate was incubated in the incubator at 37 °C with 5% CO2 for another 3 h. The medium was then removed from the culture wells, and 50 µL of cell lysis buffer (from Advance ERK phospho-T202/Y204 kit) was added to each well. The mixture was well mixed, incubated for 30 min, and then transferred to a white-bottomed, opaque 96-well assay plate at 16 µL/well, and separately, 16 µL of cell lysis buffer was added to additional wells (serving as blank wells) in the assay plate. After the transfer was completed, 4 µL of p-ERK HTRF antibody mixture (from Advance ERK phospho-T202/Y204 kit) was added to each well of the assay plate, followed by a 4-hour incubation. The HTRF signal values (RLU) were then measured using a microplate reader, and the inhibition rate of the compound against p-ERK levels was calculated as follows: IR(%) = (RLUDMSO - RLUcompound)/(RLUDMSO - RLUblank) × 100%, where RLUDMSO is the average HTRF signal value from the DMSO control well samples, RLU is the average HTRF signal value from the blank well samples, and RLUcompound is the HTRF signal value from the compound-treated well samples. Using an XLfit software, the IR(%) values were plotted against the logarithm of the compound concentrations, and the dose-response curves were fitted using the four-parameter method to calculate the IC50 values.

IC50 (NCI-H441 cells; Homo sapiens, NCI-H441, 120 h) [nM] | IC50 (p-ERK; Homo sapiens, NCI-H441, 3 h) [nM] | Compound | IC50 (NCI-H441 cells; 120 h) [nM] | IC50 (p-ERK) [nM]
115 | 182 | CCn1nc2c(c1-c1cc(C#CCN3CCS(=O)(=O)CC3)cnc1[C@H](C)OC)CC(C)(C)COC(=O)[C@@H]1CCCN(N1)C(=O)[C@@H](NC(=O)[C@@H](NC(=O)OC(C)(C)C)C(C)C)Cc1nc(cs1)/C=C/2 (atropisomer, axis not shown; (Ra)) [Compound Z53] |  | 
196 | 126 | CCn1nc2c(c1-c1cc(C#CCN3CCS(=O)(=O)CC3)cnc1[C@H](C)OC)CC(C)(C)COC(=O)[C@@H]1CCCN(N1)C(=O)[C@@H](NC(=O)[C@@H](NC)C(C)C)Cc1nc(cs1)/C=C/2 (atropisomer, axis not shown; (Ra)) [Compound Z56, (2S)-N-((4^2Z,8^3S,2E,6S)-1^5-(Ra)-(5-(3-(1,1-dioxidothiomorpholino)prop-1-yn-1-yl)-2-((S)-1-methoxyethyl)pyridin-3-yl)-1^1-ethyl-12,12-dimethyl-7,9-dioxo-8^1,8^2,8^3,8^4,8^5,8^6-hexahydro-1^1H-10-oxa-4(4,2)-thiazola-8(1,3)-pyridazina-1(3,4)-pyrrolacyclotridecaphan-2-en-6-yl)-3-methyl-2-(methylamino)butanamide] |  | 
245 | 88 | CCn1nc2c(c1-c1cc(C#CCN3CCS(=O)(=O)CC3)cnc1[C@H](C)OC)CC(C)(C)COC(=O)[C@@H]1CCCN(N1)C(=O)[C@@H](NC(=O)[C@H](C(C)C)N(C)C(=O)COc1ccccc1)Cc1nc(cs1)/C=C/2 (atropisomer, axis not shown; (Ra)) [Compound Z57, (2S)-N-((4^2Z,8^3S,2E,6S)-(Ra)-1^5-(5-(3-(1,1-dioxidothiomorpholino)prop-1-yn-1-yl)-2-((S)-1-methoxyethyl)pyridin-3-yl)-1^1-ethyl-12,12-dimethyl-7,9-dioxo-8^1,8^2,8^1,8^4,8^1,8^6-hexahydro-1^1H-10-oxa-4(4,2)-thiazola-8(1,3)-pyridazina-1(3,4)-pyrazolocyclotridec-2-en-6-yl)-3-methyl-2-(N-methyl-2-phenoxyacetamido)butanamide] |  | 

Second part, the compound before the results:

Compound | IC50 (NCI-H441 cells; Homo sapiens, NCI-H441, 120 h) [nM] | IC50 (p-ERK; Homo sapiens, NCI-H441, 3 h) [nM] | IC50 (NCI-H441 cells; 120 h) [nM] | IC50 (p-ERK) [nM]
CCn1nc2c(c1-c1cc(C#CCN3CCS(=O)(=O)CC3)cnc1[C@H](C)OC)CC(C)(C)COC(=O)[C@@H]1CCCN(N1)C(=O)[C@@H](NC(=O)[C@@H](OCc1ccccc1)C(C)C)Cc1nc(cs1)/C=C/2 (atropisomer, axis not shown; (Ra)) [Compound Z46, (2S)-2-(benzyloxy)-N-((4^2Z,8^3S,2E,6S)-1^5-(Ra)-(5-(3-(1,1-dioxidothiomorpholino)prop-1-yn-1-yl)-2-((S)-1-methoxyethyl)pyridin-3-yl)-1^1-ethyl-12,12-dimethyl-7,9-dioxo-8^1,8^2,8^3,8^4,8^5,8^6-hexahydro-1^1H-10-oxa-4(4,2)-thiazola-8(1,3)-pyridazina-1(3,4)-pyrrolacyclotridecaphan-2-en-6-yl)-3-methylbutanamide] | 176 | 168 |  | 
CCn1nc2c(c1-c1cc(C#CCN3CCS(=O)(=O)CC3)cnc1[C@H](C)OC)CC(C)(C)COC(=O)[C@@H]1CCCN(N1)C(=O)[C@@H](NC(=O)[C@@H]1CCCN1Cc1ccccc1)Cc1nc(cs1)/C=C/2 (atropisomer, axis not shown; (Ra)) [Compound Z48, (2S)-1-benzyl-N-((4^2Z,8^3S,2E,6S)-(Ra)-1^5-(5-(3-(1,1-dioxothiomorpholine)-1-prop-1-yn-1-yl)-2-((S)-1-methoxyethyl)pyridin-3-yl)-1^1-ethyl-12,12-dimethyl-7,9-dioxo-8^1,8^2,8^3,8^4,8^5,8^6-hexahydro-1^1H-10-oxa-4(4,2)-thiazola-8(1,3)-pyridazina-1(3,4)-pyrrolacyclotridecaphan-2-en-6-yl)pyrrolidine-2-carboxamide] |  |  | 123 | 78.6
CCn1nc2c(c1-c1cc(C#CCN3CCS(=O)(=O)CC3)cnc1[C@H](C)OC)CC(C)(C)COC(=O)[C@@H]1CCCN(N1)C(=O)[C@@H](NC(=O)[C@H](C(C)C)N(C)c1ccccc1)Cc1nc(cs1)/C=C/2 (atropisomer, axis not shown; (Ra)) [Compound Z51, (2S)-N-((4^2Z,8^3S,2E,6S)-(Ra)-1^5-(5-(3-(1,1-dioxidothiomorpholine)prop-1-yn-1-yl)-2-((S)-1-methoxyethyl)pyridin-3-yl)-1^1-ethyl-12,12-dimethyl-7,9-dioxo-8^1,8^2,8^3,8^4,8^5,8^6-hexahydro-1^1H-10-oxa-4(4,2)-thiazola-8(1,3)-pyridazina-1(3,4)-pyrazolecyclotridec-2-en-6-yl)-3-methyl-2-(methyl(phenyl)amino)butanamide] | 3.46 | 3.02 |  | 
